{
  "source": "ChEMBL document CHEMBL5728516",
  "about": "“4,6-substituted-pyrazolo[1,5-a]pyrazines as janus kinase inhibitors” (2021)",
  "target": "Tyrosine-protein kinase JAK2 (Homo sapiens, UniProt O60674)",
  "sequence (O60674 whole entry)": "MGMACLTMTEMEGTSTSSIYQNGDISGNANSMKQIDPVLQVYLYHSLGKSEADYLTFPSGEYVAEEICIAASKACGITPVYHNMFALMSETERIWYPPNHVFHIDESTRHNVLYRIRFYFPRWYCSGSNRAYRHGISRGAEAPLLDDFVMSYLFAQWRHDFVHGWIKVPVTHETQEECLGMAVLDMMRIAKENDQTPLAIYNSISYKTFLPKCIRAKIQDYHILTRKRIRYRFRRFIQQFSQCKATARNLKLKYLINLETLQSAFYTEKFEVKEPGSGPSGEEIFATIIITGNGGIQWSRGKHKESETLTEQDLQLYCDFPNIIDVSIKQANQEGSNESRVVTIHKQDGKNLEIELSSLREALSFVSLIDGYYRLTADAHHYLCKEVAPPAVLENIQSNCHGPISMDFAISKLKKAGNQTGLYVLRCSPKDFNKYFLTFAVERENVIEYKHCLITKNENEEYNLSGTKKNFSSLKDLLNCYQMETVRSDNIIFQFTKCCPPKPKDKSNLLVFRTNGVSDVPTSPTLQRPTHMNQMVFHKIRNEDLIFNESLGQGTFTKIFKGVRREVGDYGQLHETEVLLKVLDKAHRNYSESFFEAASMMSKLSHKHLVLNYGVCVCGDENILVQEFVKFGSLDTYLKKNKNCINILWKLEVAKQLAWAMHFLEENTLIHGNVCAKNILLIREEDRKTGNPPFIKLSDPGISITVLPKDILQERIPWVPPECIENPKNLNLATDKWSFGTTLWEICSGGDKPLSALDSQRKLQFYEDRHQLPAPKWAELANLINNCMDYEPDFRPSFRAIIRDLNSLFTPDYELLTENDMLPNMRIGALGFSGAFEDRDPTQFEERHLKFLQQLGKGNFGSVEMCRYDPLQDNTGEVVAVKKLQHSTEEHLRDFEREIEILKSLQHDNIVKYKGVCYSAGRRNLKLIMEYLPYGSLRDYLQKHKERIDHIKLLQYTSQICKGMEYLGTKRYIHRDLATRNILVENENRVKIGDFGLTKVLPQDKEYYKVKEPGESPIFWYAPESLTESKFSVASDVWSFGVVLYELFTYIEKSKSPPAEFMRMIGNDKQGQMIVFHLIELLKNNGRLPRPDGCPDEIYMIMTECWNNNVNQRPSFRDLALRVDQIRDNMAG",
  "assay": "JAK2 Inhibition Assay: Compounds of Formula I were screened for their ability to inhibit JAK2 using the general enzyme inhibition assay method, in which the assay mixture contained 1 mM ATP, 10 μM Omnia® Y7 peptide (Catalog # IVGN KNZ3071C, Invitrogen Corporation, Carlsbad, Calif.) and 4 nM JAK2 in a total volume of 25 μL. JAK2 was purchased from Invitrogen Corporation, Carlsbad, Calif. (catalog # IVGN PV4288).",
  "note": "pIC50: −log10 of the molar value.",
  "data": [
    {"smiles": "CCC(CC)n1cc(-c2nc(-c3cnn([C@H]4C[C@](O)(CO)C4)c3)cn3nccc23)cn1", "values": [
      {"measurement": "pIC50", "result": "> 8.00"}
    ]}
  ]
}
